The text below walks through data of US11065211B2, “Isoxylitones mediated neurogenesis” (priority 2018, dated 2021).

The subject of one experiment is Cocul-HP cells. Put plainly: AlamarBlue proliferation assay. As to conditions: 24 h, FIG. 4. Type of experiment: cell-based, rat. On the procedure: (§1) Wistar rats (150-200 gm) were used to isolate bone marrow (BM). Rats were sacrificed and their femurs were removed aseptically. The bone marrow (BM) was flushed from the shaft of the bone by clipping of the epiphysial ends and flushing using a 26-gauge needle with ˜2 ml of Dulbecco's Modified Eagle's medium (DMEM) supplemented with 5% FBS, 1% penicillin/streptomycin solution, 1% sodium pyruvate and L-glutamine. The BM was then centrifuged for 8 minutes at 1000 rpm. Following centrifugation, cell pellet was collected and 1 ml of fresh DMEM was added. The cell viability was checked using trypan blue exclusion method. The cells were then divided into three equal parts. One part was co-cultured with freshly isolated hippocampal cells in T75 cm^2 flask, 2nd with freshly isolated cortical cells and the third portion (BM cells only) was cultured as a control. The cell density for co-cultures was set at 140,000 cells/ml for each type of culture. The cultured flasks were then incubated at 37° C. and 5% CO2. After 4-5 days, floating hematopoietic cells and dead debris/tissues of hippocampus and cortex were removed and bone marrow stromal cells (BMSCs) were recovered due to their tendency to adhere. Medium was replaced after every 3 to 4 days till cells became 80-90% confluent.
(§2) AlamarBlue (AB), a water-soluble dye having resazurin salt was used to evaluate the effect of isoxylitones on the proliferation of the cultured cells. AB measures mitochondrial reductase activity of live cells. The resazurin has ability to enter the cytosol of viable cell and converted to the reduced fluorescent form resorufin by mitochondrial enzyme activity by accepting electrons from NADPH, FADH, FMNH, NADH as well as from the cytochromes. […] The amount of fluorescence produced is proportional to the number of living cells (Al-Nasiry, Geusens, Hanssens, Luyten, Pijnenborg, 2007). […] After incubation, the fluorescence intensity in each well was recorded at an excitation wavelength of 570 nm and an emission wavelength of 600 nm. The rate of cell proliferation was expressed as the relative fluorescence intensity. […] The blank media fluorescence measurement was subtracted from fluorescence measurements of cells from the same run.
(§3) Formula used to calculate the percentage reduction of AB using absorbance readings:
(§4) [formula] Where: O1=molar extinction coefficient (E) of oxidized alamarBlue® (Blue) at 570 nm O2=E of oxidized alamarBlue® at 600 nm A1=absorbance of test wells at 570 nm A2=absorbance of test wells at 600 nm P1=absorbance of positive growth control well (cells plus alamarBlue® but no test agent) at 570 nm P2=absorbance of positive growth control well (cells plus alamarBlue® but no test agent at 600 nm

For the next experiment, the system named is Cocul-CTX cells. Put plainly: AlamarBlue proliferation assay. Type of experiment: cell-based, rat. As to conditions: 24 h, FIG. 4. On the procedure: as §1, §2, §3, §4
For orientation: Alamar Blue is a resazurin reagent that responds to reducing activity.

Regarding `CC(=O)C=C1C=C(C)CC(C)(C)C1` (mixture of isomers) [isoxylitones], the highest proliferative dose in the experiment on Cocul-HP cells and in the experiment on Cocul-CTX cells was 150 µg/mL each time. Besides, the “growth proliferation (Alamar blue)” value with Cocul-HP cells (various doses) and in the experiment on Cocul-CTX cells (various doses) was “dose dependent growth proliferative effect” each time.
